Where two headings read alike, the source gives them in different places.
Experiments:
[1] = clinical; conditions: human, in vivo, iv
[2] = test system: staphylococci and streptococci; test: PK/PD evaluation: observed PK versus EUCAST breakpoint MIC, adjusted by 93% protein binding; conditions: MIC 0.125 mg/L
Protocol: (§1) T > MIC was calculated based on the terminal t1/2 for each patient as a possible marker of the long-term prophylactic effect.

[3] = test system: plasma proteins (mainly albumin); conditions: cited from earlier work
[4] = ref [6],[7],[8]; cited from earlier work
[5] = test system: staphylococci and streptococci; conditions: in vivo
Protocol: as §1

[6] = in vivo
[7] = test system: plasma proteins (mainly albumin); conditions: cited from earlier work; remark: listed apart in the source
From the text: Currently, off-label use at high dosages for osteoarticular infections deserves attention. […] AUC0-1w/MIC and, partic ...

[8] = test system: MRSA; test: Vancomycin MIC of patient isolates by ETEST; assay type: cell-based, Staphylococcus aureus; conditions: isolates of individual patients
[9] = test system: MSSA; test: Vancomycin MIC of patient isolates by ETEST; assay type: cell-based, Staphylococcus aureus; conditions: isolates of individual patients

| SMILES | half-life [1] | half-life ([1]; 1500 mg) | Cmax ([1]; 1500 mg, C max) | median AUC0-2w/MIC ratio ([2]; dual dose regimen) | median AUC0-2w/MIC ratio ([2]; single dose regimen) | binding to plasma proteins [3] | half-life (t1/2) [4] | AUC0-2w/MIC adjusted by 93% protein binding, all patients ([5]; human) | AUC0-2w/MIC relative to previously suggested cut-off of 1000 (for staphylococci) [5] | T > MIC in all patients [5] | t1/2 reached in multiphasic profile [6] | binding to plasma proteins [7] | MIC for Vancom. [8] | MIC for Vancom. [9] |
| --- | --- | --- | --- | --- | --- | --- | --- | --- | --- | --- | --- | --- | --- | --- |
| CN[C@H]1C(=O)N[C@@H]2Cc3ccc(cc3)Oc3cc4cc(c3O[C@@H]3O[C@H](C(=O)O)[C@@H](O)[C@H](O)[C@H]3NC(=O)CCCCCCCCC(C)C)Oc3ccc(cc3Cl)[C@@H](O)[C@@H]3NC(=O)[C@H](NC(=O)[C@@H]4NC(=O)[C@@H](NC2=O)c2cc(cc(O)c2Cl)Oc2cc1ccc2O)c1ccc(O)c(c1)-c1c(O[C@H]2O[C@H](CO)[C@@H](O)[C@H](O)[C@@H]2O)cc(O)cc1[C@@H](C(=O)NCCCN(C)C)NC3=O [DBV, Dalbavancin] | 26.1 days | 21.9 days | 390 µg/mL | 31,366 | 20,590 | ~98% | around 9 days | higher than 17,000 | at least 8 folds | higher than 6 weeks | higher than 500 h | 93% | – | – |
| CN[C@H](CC(C)C)C(=O)N[C@H]1C(=O)N[C@@H](CC(N)=O)C(=O)N[C@H]2C(=O)N[C@H]3C(=O)N[C@H](C(=O)N[C@H](C(=O)O)c4cc(O)cc(O)c4-c4cc3ccc4O)[C@H](O)c3ccc(c(Cl)c3)Oc3cc2cc(c3O[C@@H]2O[C@H](CO)[C@@H](O)[C@H](O)[C@H]2O[C@H]2C[C@](C)(N)[C@H](O)[C@H](C)O2)Oc2ccc(cc2Cl)[C@H]1O [Vancomycin, vancomycin] | – | – | – | – | – | – | – | – | – | – | – | – | 1 µg/mL | ≤0.5 µg/mL |
